Converted amounts (≈) assume the structure as drawn.
Legend:
[1] = test system: Mycobacterium tuberculosis; test: Antimycobacterial activity against multidrug-resistant Mycobacterium tuberculosis CF104 clinical isolate incubated for 7 days measured 24 hrs post incubation by resazurin microtiter assay; assay type: functional
[2] = test system: Mycobacterium tuberculosis; test: Antimycobacterial activity against multidrug-resistant Mycobacterium tuberculosis CF81 clinical isolate incubated for 7 days measured 24 hrs post incubation by resazurin microtiter assay; assay type: functional

Compound: CSc1ccc2c(c1)N(C(=O)CN1CCCCC1)c1ccccc1S2
- MIC90 [1]: 72 µg/mL (≈ 194 µM)
- MIC90 [2]: > 100 µg/mL

Compound: c1ccc2c(c1)Sc1ccccc1N2CCC1CCCCN1 (configuration not stated)
- MIC90 [1]: > 64 µg/mL
- MIC90 [2]: 58 µg/mL (≈ 187 µM)

Compound: CSc1ccc2c(c1)N(CCCN1CCN(C3C4CC5CC(C4)CC3C5)CC1)c1ccccc1S2 (configuration not stated)
- MIC90 [1]: 20 µg/mL (≈ 39.5 µM)
- MIC90 [2]: 48 µg/mL (≈ 94.9 µM)

Compound: c1ccc2c(c1)ncn2CCC1CCCCN1 (configuration not stated)
- MIC90 [1]: > 100 µg/mL
- MIC90 [2]: > 100 µg/mL

Compound: CN1CCCCC1CCN1c2ccccc2Sc2ccc(Cl)cc21 (configuration not stated)
- MIC90 [1]: 16 µg/mL (≈ 44.6 µM)
- MIC90 [2]: 12 µg/mL (≈ 33.4 µM)

Compound: CN1CCCCC1CCN1c2ccccc2Sc2ccccc21 (configuration not stated)
- MIC90 [1]: > 64 µg/mL
- MIC90 [2]: 58 µg/mL (≈ 179 µM)

Compound: CO[C@H]1/C=C/O[C@@]2(C)Oc3c(C)c(O)c4c(O)c(c(/C=N/N5CCN(C)CC5)c(O)c4c3C2=O)NC(=O)/C(C)=C\C=C\[C@H](C)[C@H](O)[C@@H](C)[C@@H](O)[C@@H](C)[C@H](OC(C)=O)[C@@H]1C [RIFAMPIN]
- MIC90 [1]: > 25 µg/mL
- MIC90 [2]: > 25 µg/mL

Compound: CSc1ccc2c(c1)N(CCC1CCCCN1)c1ccccc1S2 (configuration not stated)
- MIC90 [1]: > 100 µg/mL
- MIC90 [2]: > 100 µg/mL

Compound: NNC(=O)c1ccncc1 [ISONIAZID]
- MIC90 [1]: > 25 µg/mL
- MIC90 [2]: > 25 µg/mL

Compound: CSc1ccc2c(c1)N(CCCN1CCN(C)CC1)c1ccccc1S2
- MIC90 [1]: 23 µg/mL (≈ 59.6 µM)
- MIC90 [2]: 33 µg/mL (≈ 85.6 µM)

Compound: CN1CCCCC1CCn1c2ccccc2c2ccccc21 (configuration not stated)
- MIC90 [1]: 48 µg/mL (≈ 164 µM)
- MIC90 [2]: 46 µg/mL (≈ 157 µM)

Compound: CSc1ccc2c(c1)N(CCC1CCCCN1Cc1ccccc1)c1ccccc1S2 (configuration not stated)
- MIC90 [1]: 32 µg/mL (≈ 71.6 µM)
- MIC90 [2]: 44 µg/mL (≈ 98.5 µM)

Compound: Clc1ccc2c(c1)N(CCC1CCCCN1)c1ccccc1S2 (configuration not stated)
- MIC90 [1]: 19 µg/mL (≈ 55.1 µM)
- MIC90 [2]: 11 µg/mL (≈ 31.9 µM)

Compound: CN1CCN(CCCN2c3ccccc3Sc3ccccc32)CC1 [PERAZINE]
- MIC90 [1]: > 100 µg/mL
- MIC90 [2]: > 100 µg/mL

Compound: c1ccc2c(c1)ccn2CCC1CCCCN1 (configuration not stated)
- MIC90 [1]: 10 µg/mL (≈ 43.8 µM)
- MIC90 [2]: 4 µg/mL (≈ 17.5 µM)

Compound: CSc1ccc2c(c1)N(CCC1CCCCN1C)c1ccccc1S2 (configuration not stated) [THIORIDAZINE]
- MIC90 [1]: 11 µg/mL (≈ 29.7 µM)
- MIC90 [2]: 10 µg/mL (≈ 27 µM)

Source: ChEMBL document CHEMBL3992516, “Synthesis and SAR evaluation of novel thioridazine derivatives active against drug-resistant tuberculosis” (Eur J Med Chem, 2017)
